From EP4772514A1, “MACROCYCLIC COMPOUNDS, PREPARATION METHOD THEREFOR, AND USE THEREOF” (Genfleet Therapeutics (Shanghai) Inc., priority 2023, dated 2025)
Where two headings read alike, the source gives them in different places.

Legend:
[1] = tested on: p-ERK; assay: Cell p-ERK assay (HTRF, Advance ERK phospho-T202/Y204 kit) in NCI-H441 cells; format: cell-based; conditions: NCI-H441, human non-small cell lung cancer cell strain, KRAS G12V mutation, 3 h compound incubation
Procedure: AsPC-1 cells were purchased from ATCC, Cat. No. CRL-1682; NCI-H441 cells were purchased from ATCC, Cat. No. HTB-174; RPMI-1640 medium was purchased from Gibco, Cat. No. 11875-093; FBS was purchased from Gibco, Cat. No. 10099-141C; penicillin/streptomycin double-antibiotic solution (PS) was purchased from Gibco, Cat. No. 15140-122; trypsin (containing EDTA) was purchased from Gibco, Cat. No. 25200-072; DMSO was purchased from VWRAMRESCO, Cat. No. 0231-500ML; 96-well cell culture plates were purchased from Corning, Cat. No. 3599; white-bottomed, opaque 96-well plates were purchased from Cisbio, Cat. No. 66PL96025; Advance ERK phospho-T202/Y204 kit was purchased from Cisbio, Cat. No. 64AERPEH; cell counter was purchased from CHEMOMETEC, model: NC-200; microplate reader was purchased from PerkinElmer, model: EnVision.
AsPC-1, a human pancreatic cancer cell strain endogenously containing a KRAS^G12D mutation, was cultured in a complete medium containing RPMI-1640 + 10% FBS + 1% PS. NCI-H441, a human non-small cell lung cancer cell strain endogenously containing a KRAS^G12V mutation, was cultured in a complete medium containing RPMI-1640 + 10% FBS + 1% PS.
The cells were digested with trypsin (containing EDTA), collected in their corresponding complete media, and counted. The density of the cell suspensions was adjusted with their corresponding complete media, and AsPC-1 cells (10000 cells/well) or NCI-H441 cells (20000 cells/well) were seeded into a 96-well cell culture plate, with the volume of the medium in each well being 80 µL. The cell culture plate was incubated in an incubator at 37 °C with 5% CO2 overnight. A series of 3.16-fold gradient dilutions of a 1000× compound stock solution were prepared with DMSO, and then diluted 200-fold with the complete medium described above to give 5× compound stock solutions. On the day after cell seeding, 20 µL of the 5× compound stock solution was added to each cell culture well. As a result, the final concentration of the compound in the cell culture well became 1×, and the DMSO content in the well was 0.1%. In addition to the compound-treated wells described above, cell-containing DMSO control wells were also set. A complete medium containing 0.5% DMSO was added at 20 µL/well. After the mixture was well mixed, the culture plate was incubated in the incubator at 37 °C with 5% CO2 for another 3 h. The medium was then removed from the culture wells, and 50 µL of cell lysis buffer (from Advance ERK phospho-T202/Y204 kit) was added to each well. The mixture was well mixed, incubated for 30 min, and then transferred to a white-bottomed, opaque 96-well assay plate at 16 µL/well, and separately, 16 µL of cell lysis buffer was added to additional wells (serving as blank wells) in the assay plate. After the transfer was completed, 4 µL of p-ERK HTRF antibody mixture (from Advance ERK phospho-T202/Y204 kit) was added to each well of the assay plate, followed by a 4-hour incubation. The HTRF signal values (RLU) were then measured using a microplate reader, and the inhibition rate of the compound against p-ERK levels was calculated as follows: IR(%) = (RLUDMSO - RLUcompound)/(RLUDMSO - RLUblank) × 100%, where RLUDMSO is the average HTRF signal value from the DMSO control well samples, RLU is the average HTRF signal value from the blank well samples, and RLUcompound is the HTRF signal value from the compound-treated well samples. Using an XLfit software, the IR(%) values were plotted against the logarithm of the compound concentrations, and the dose-response curves were fitted using the four-parameter method to calculate the IC50 values.

[2] = tested on: NCI-H441 cells; assay: 3D cell proliferation assay (CellTiter Glo-3D) in NCI-H441 cells; format: cell-based; conditions: NCI-H441, human lung cancer cell strain, KRAS G12V mutation, 3D culture, 2% FBS, 5 days, read-out: H441 AP IC50
Text: MIA PaCa-2 cells were purchased from ATCC, Cat. No. CRL-1420; AsPC-1 cells were purchased from ATCC, Cat. No. CRL-1682; NCI-H441 cells were purchased from ATCC, Cat. No. HTB-174; NCI-H1975 cells were purchased from ATCC, Cat. No. CRL-5908; DMEM medium was purchased from Gibco, Cat. No. 11995-065; RPMI-1640 medium was purchased from Gibco, Cat. No. 11875-093; FBS was purchased from Gibco, Cat. No. 10099-141C; penicillin/streptomycin double-antibiotic solution (PS) was purchased from Gibco, Cat. No. 15140-122; Horse serum was purchased from Gibco, Cat. No. 16050130; trypsin (containing EDTA) was purchased from Gibco, Cat. No. 25200-072; DMSO was purchased from VWRAMRESCO, Cat. No. 0231-500ML; 384-well cell culture plates were purchased from Corning, Cat. No. 3830; white-bottomed, opaque 384-well assay plates were purchased from Corning, Cat. No. 3570; CellTiter Glo-3D kit was purchased from Promega, Cat. No. G9683; cell counter was purchased from CHEMOMETEC, model: NC-200; microplate reader was purchased from PerkinElmer, model: EnVision.
MIA PaCa-2, a human pancreatic cancer cell strain endogenously containing a KRAS^G12Cmutation, was cultured in a complete medium containing DMEM + 10% FBS + 2.5% Horse serum + 1% PS. AsPC-1, a human pancreatic cancer cell strain endogenously containing a KRAS^G12D mutation, was cultured in a complete medium containing RPMI-1640 + 10% FBS + 1% PS. NCI-H441 cells, a human lung cancer cell strain endogenously containing a KRAS^G12V mutation, were cultured in a complete medium containing RPMI-1640 + 10% FBS + 1% PS. NCI-H1975, a KRAS wild-type human lung cancer cell strain whose cell proliferation […], was cultured in a complete medium containing RPMI-1640 + 10% FBS + 1% PS.
The cells were digested with trypsin (containing EDTA), collected in their respective low-serum complete media containing 2% FBS (for MIA Paca-2 cell culture: DMEM + 2% FBS + 0.5% Horse serum + 1% PS), and counted. After the cell density was adjusted as required, MIA PaCa-2 cells (200 cells/well), AsPC-1 cells (800 cells/well), NCI-H441 cells (800 cells/well), or NCI-H1975 cells (400 cells/well) were seeded into a 384-well cell culture plate, with the volume of the medium in each well being 45 µL. The cell culture plate was incubated in an incubator at 37 °C with 5% CO2 overnight. A series of 3.16-fold gradient dilutions of a 1000× compound stock solution were prepared with DMSO, and then diluted 100-fold with the complete medium containing 2% FBS described above to give 10× compound stock solutions. On the day after cell seeding, 5 µL of the 10× compound stock solution was added to each cell culture well. As a result, the final concentration of the compound in the cell culture well became 1×, and the DMSO content in the well was 0.1%. In addition to the compound-treated wells described above, cell-containing DMSO control wells (with 5 µL of the complete medium containing 1% DMSO added to each well) and cell-free medium control wells (containing 50 µL of the complete medium with 2% FBS) were also set. The culture plate was incubated in an incubator at 37 °C with 5% CO2 for another 5 days, and then 30 µL of CellTiter-Glo working solution was added to each well. The mixture was well mixed, incubated for 30 min, left to stand at room temperature for 30 min, and then transferred to a white-bottomed, opaque 384-well assay plate at 40 µL/well. The chemiluminescence values (RLU) were measured using a microplate reader, and the cell proliferation inhibition rate for each well was calculated: IR(%) = (RLUDMSO - RLUcompound)/(RLUDMSO - RLUblank) × 100%, where RLUDMSO is the average RLU signal value from the DMSO control well samples, RLUblank is the average RLU signal value from the medium control well samples, and RLUcompound is the RLU signal value from the compound-treated well samples. […]

Row | Compound | IC50 ([1]; Homo sapiens, NCI-H441, 3 h) | IC50 ([2]; Homo sapiens, NCI-H441, 120 h) | IC50 [1] | IC50 [2]
1 | (2R)-N-((4^2Z,8^3S,2E,6S)-(Ra)-1^5-(5-(3-(1,1-dioxothiomorpholino)prop-1-yn-1-yl)-2-((S)-1-methoxyethyl)pyridin-3-yl)-1^1-ethyl-12,12-dimethyl-7,9-dioxo-8^1,8^2,8^3,8^4,8^5,8^6-hexahydro-1^1H-10-oxo-4(4,2)-thiazola-8(1,3)-pyridazina-1(3,4)-pyrrolacyclotridecaphan-2-en-6-yl)-3-methyl-2-(N-methyl-2-phenylacetamido)butanamide [Compound Z47-2] | – | – | 0.0173 µM | 0.0376 µM
2 | CCn1nc2c(c1-c1cc(C#CCN3CCS(=O)(=O)CC3)cnc1[C@H](C)OC)CC(C)(C)COC(=O)[C@@H]1CCCN(N1)C(=O)[C@@H](NC(=O)[C@@H](OCc1ccccc1)C(C)C)Cc1nc(cs1)/C=C/2 (atropisomer, axis not shown; (Ra)) [Compound Z46, (2S)-2-(benzyloxy)-N-((4^2Z,8^3S,2E,6S)-1^5-(Ra)-(5-(3-(1,1-dioxidothiomorpholino)prop-1-yn-1-yl)-2-((S)-1-methoxyethyl)pyridin-3-yl)-1^1-ethyl-12,12-dimethyl-7,9-dioxo-8^1,8^2,8^3,8^4,8^5,8^6-hexahydro-1^1H-10-oxa-4(4,2)-thiazola-8(1,3)-pyridazina-1(3,4)-pyrrolacyclotridecaphan-2-en-6-yl)-3-methylbutanamide] | 0.168 µM | 0.176 µM | – | –

More lines, in order of falling IC50 ([1]; Homo sapiens, NCI-H441, 3 h), values ahead:

Row | IC50 ([1]; Homo sapiens, NCI-H441, 3 h) | IC50 ([2]; Homo sapiens, NCI-H441, 120 h) | IC50 [1] | IC50 [2] | Compound
3 | 0.126 µM | 0.196 µM | – | – | CCn1nc2c(c1-c1cc(C#CCN3CCS(=O)(=O)CC3)cnc1[C@H](C)OC)CC(C)(C)COC(=O)[C@@H]1CCCN(N1)C(=O)[C@@H](NC(=O)[C@@H](NC)C(C)C)Cc1nc(cs1)/C=C/2 (atropisomer, axis not shown; (Ra)) [Compound Z56, (2S)-N-((4^2Z,8^3S,2E,6S)-1^5-(Ra)-(5-(3-(1,1-dioxidothiomorpholino)prop-1-yn-1-yl)-2-((S)-1-methoxyethyl)pyridin-3-yl)-1^1-ethyl-12,12-dimethyl-7,9-dioxo-8^1,8^2,8^3,8^4,8^5,8^6-hexahydro-1^1H-10-oxa-4(4,2)-thiazola-8(1,3)-pyridazina-1(3,4)-pyrrolacyclotridecaphan-2-en-6-yl)-3-methyl-2-(methylamino)butanamide]
4 | 0.088 µM | 0.245 µM | – | – | CCn1nc2c(c1-c1cc(C#CCN3CCS(=O)(=O)CC3)cnc1[C@H](C)OC)CC(C)(C)COC(=O)[C@@H]1CCCN(N1)C(=O)[C@@H](NC(=O)[C@H](C(C)C)N(C)C(=O)COc1ccccc1)Cc1nc(cs1)/C=C/2 (atropisomer, axis not shown; (Ra)) [Compound Z57, (2S)-N-((4^2Z,8^3S,2E,6S)-(Ra)-1^5-(5-(3-(1,1-dioxidothiomorpholino)prop-1-yn-1-yl)-2-((S)-1-methoxyethyl)pyridin-3-yl)-1^1-ethyl-12,12-dimethyl-7,9-dioxo-8^1,8^2,8^1,8^4,8^1,8^6-hexahydro-1^1H-10-oxa-4(4,2)-thiazola-8(1,3)-pyridazina-1(3,4)-pyrazolocyclotridec-2-en-6-yl)-3-methyl-2-(N-methyl-2-phenoxyacetamido)butanamide]
5 | 0.00302 µM | 0.00346 µM | – | – | CCn1nc2c(c1-c1cc(C#CCN3CCS(=O)(=O)CC3)cnc1[C@H](C)OC)CC(C)(C)COC(=O)[C@@H]1CCCN(N1)C(=O)[C@@H](NC(=O)[C@H](C(C)C)N(C)c1ccccc1)Cc1nc(cs1)/C=C/2 (atropisomer, axis not shown; (Ra)) [Compound Z51, (2S)-N-((4^2Z,8^3S,2E,6S)-(Ra)-1^5-(5-(3-(1,1-dioxidothiomorpholine)prop-1-yn-1-yl)-2-((S)-1-methoxyethyl)pyridin-3-yl)-1^1-ethyl-12,12-dimethyl-7,9-dioxo-8^1,8^2,8^3,8^4,8^5,8^6-hexahydro-1^1H-10-oxa-4(4,2)-thiazola-8(1,3)-pyridazina-1(3,4)-pyrazolecyclotridec-2-en-6-yl)-3-methyl-2-(methyl(phenyl)amino)butanamide]
